# Columns and labels:
# [1] = test system: poly-ADP ribose polymerase (PARP); parameters: method as in PMID 35682740; conditions: previous work of the authors; cited from earlier work
# [2] = test system: human colon cancer cell lines: HCT 116, SW620, LoVo, Caco-2, and HT-29; experiment: MTT cell viability assay, statements across the panel; assay type: cell-based; conditions: Homo sapiens, range over the cancer cell lines, read-out: IC50 range against colon cancer cell lines
# Description: The cytotoxic activity of the 3-benzylideneflavanones, 3-benzylidenechromanones derivatives (compounds 1, 2, 3, 4, 5) and 5′-(3-methoxyphenyl)-2-phenyl-4′,5′-dihydro-4H-spiro[chromano-3,3′-pirazol]-4-one (compound 3a) was evaluated using the MTT assay (4,5-dimethylthiazol-2-yl)-2,5-diphenyltetrazoliumbromide), a colorimetric method that quantifies cell viability. […] These IC50 values were subsequently used for all experiments investigating the anticancer activity of the flavanone/chromanone derivatives in this study.
# (§1) Cell viability was determined using the metabolic microplate spectrophotometric assay with Methylthiazolyl diphenyltetrazolium bromide (MTT) (Sigma-Aldrich; St. Louis, MO, USA). The MTT method belongs to metabolic tests for determining cell viability and consists of measuring the absorbance of a violet solution of formazan, a product of the reduction of a water-soluble yellow MTT by oxidoreductive enzymes (mainly mitochondrial succinate dehydrogenase) of living cells. The amount of the reaction product (water-insoluble formazan crystals) is proportional to the number of living and metabolically active cells in the sample. In the case of damaged or dead cells, formazan is formed in smaller amounts, or it is not formed.
# The appropriate number of cells for a given cell line (6–8 × 10^3 cells/mL) were seeded onto colorless, sterile 96-well microplates (Nunc, Roskilde, Denmark) in the number appropriate for a given cell line. After 24 h of culture, various concentrations of the studied compounds (10^−7–10^−5 M) freshly prepared in DMSO (final concentration DMS < 0.1%) and diluted with complete culture medium were added and incubated in a CO2 incubator for 24 h. After this time, the medium was removed; the cell monolayer was washed twice with sterile PBS solution; and fresh culture medium was added to the microplate wells. After 48 h of cell culture, the MTT test was performed. A volume of 50 μL of tetrazolium salt solution (final concentration 0.05 mg/mL) was added to each microplate well. The microplate was placed for 3–4 h (depending on the cell line) in a CO2 incubator. After incubation, 100 μL of DMSO was added to the wells of the microplate to dissolve the purple formazan crystals formed in the living cell environment. The absorbance of the formazan solution, after gentle mixing, was read at a wavelength of λ = 580 nm and a reference wavelength of λ = 720 nm (Biotek Power Wave HT, Biotek Instruments, Winooski, VT, USA). The percentage of living cells was calculated by comparing the absorbance value of the tested samples with the absorbance value of the control (cells not treated with compounds). The absorbance of the control was taken as 100%. […] Moreover, cisplatin (Sigma-Aldrich, St. Louis, MO, USA) was used as a reference compound, and identical incubation conditions were used as described above.
# HCT 116 = experiment: MTT cell viability assay; assay type: cell-based; conditions: Homo sapiens, 24 h incubation with compound, mean ± SD of three experiments, read-out: Cytotoxic effect, IC50
# Description: (§2) The cytotoxic activity of the 3-benzylideneflavanones, 3-benzylidenechromanones derivatives (compounds 1, 2, 3, 4, 5) and 5′-(3-methoxyphenyl)-2-phenyl-4′,5′-dihydro-4H-spiro[chromano-3,3′-pirazol]-4-one (compound 3a) was evaluated using the MTT assay (4,5-dimethylthiazol-2-yl)-2,5-diphenyltetrazoliumbromide), a colorimetric method that quantifies cell viability.
# as §1
# (§3) The appropriate number of cells for a given cell line (6–8 × 10^3 cells/mL) were seeded onto colorless, sterile 96-well microplates (Nunc, Roskilde, Denmark) in the number appropriate for a given cell line. After 24 h of culture, various concentrations of the studied compounds (10^−7–10^−5 M) freshly prepared in DMSO (final concentration DMS < 0.1%) and diluted with complete culture medium were added and incubated in a CO2 incubator for 24 h. After this time, the medium was removed; the cell monolayer was washed twice with sterile PBS solution; and fresh culture medium was added to the microplate wells. After 48 h of cell culture, the MTT test was performed. A volume of 50 μL of tetrazolium salt solution (final concentration 0.05 mg/mL) was added to each microplate well. The microplate was placed for 3–4 h (depending on the cell line) in a CO2 incubator. After incubation, 100 μL of DMSO was added to the wells of the microplate to dissolve the purple formazan crystals formed in the living cell environment. The absorbance of the formazan solution, after gentle mixing, was read at a wavelength of λ = 580 nm and a reference wavelength of λ = 720 nm (Biotek Power Wave HT, Biotek Instruments, Winooski, VT, USA). The percentage of living cells was calculated by comparing the absorbance value of the tested samples with the absorbance value of the control (cells not treated with compounds). The absorbance of the control was taken as 100%.
# LoVo = experiment: MTT cell viability assay; assay type: cell-based; conditions: Homo sapiens, 24 h incubation with compound, mean ± SD of three experiments, read-out: Cytotoxic effect, IC50
# Description: as §2, §1, §3
# SW620 = experiment: MTT cell viability assay; assay type: cell-based; conditions: Homo sapiens, SW-620, 24 h incubation with compound, mean ± SD of three experiments, read-out: Cytotoxic effect, IC50
# Description: as §2, §1, §3
# HT-29 = experiment: MTT cell viability assay; assay type: cell-based, human; conditions: Homo sapiens, HT-29, 24 h, HT-29, 24 h incubation with compound, mean ± SD of three experiments, read-out: Cytotoxic effect, IC50
# Description: as §2, §1, §3
# Caco-2 = experiment: MTT cell viability assay; assay type: cell-based, human; conditions: Homo sapiens, Caco-2, 24 h, 24 h incubation with compound, mean ± SD of three experiments, read-out: Cytotoxic effect, IC50
# Description: as §2, §1, §3
IC50 [2],Structure (SMILES),Interaction with PARP [1],IC50 (HCT 116),IC50 (LoVo),IC50 (SW620),IC50 (HT-29),IC50 (Caco-2)
–,"Cc1cccc(C2CC3(N=N2)C(=O)c2ccccc2OC3c2ccccc2)c1 (stereo not shown) [5′-(3-methylphenyl)-2-phenyl-4′,5′-dihydro-4H-spiro[chromano-3,3′-pirazol]-4-one]","effectively interacted with poly-ADP ribose polymerase (PARP), leading to its inactivation and degradation",–,–,–,–,–
70 to 210 µM,CCN(CC)c1ccc(/C=C2/C(=O)c3ccccc3OC2c2ccccc2)cc1 (stereo not shown) [Compound 2],–,192 ± 3.4 µM,200 ± 6.6 µM,211 ± 2.9 µM,> 250 µM,> 250 µM
70 to 210 µM,Cc1ccc(/C=C2/C(=O)c3ccccc3OC2c2ccccc2)cc1 (stereo not shown) [Compound 4],–,113 ± 5.1 µM,178 ± 4.4 µM,> 250 µM,172 ± 4.2 µM,156 ± 5.2 µM

# Source: paper PMC11641365, “Evaluation of In Vitro Biological Activity of Flavanone/Chromanone Derivatives: Molecular Analysis of Anticancer Mechanisms in Colorectal Cancer” (International Journal of Molecular Sciences, 2024)
